Columns and labels:
Assay type in all cases: biochemical
[1] = system: LAMP spiked with 5×104 copies λ phage DNA; assay: TPW screen with LAMP (1 μL wash candidate added to 10 μL reaction); conditions: 1 μL candidate in 11 μL total
Procedure: (§1) LAMP primers (Integrated DNA Technologies (IDT), Coralville, Iowa, USA) were designed, ordered, and added at NEB's recommended concentrations of […] FIP/BIP, 0.2μM F3/B3, and […] LoopF/B.
(§2) Each 96-well plate was sealed and briefly spun. […] Time-to-positive (TTP) was determined when the software's automated baseline corrected fluorescence reached 1000 RFU.
Criterion 1a was investigated directly by performing qPCR and LAMP reactions. Reactions were spiked with λ phage DNA, diluted up to 10 μL, and an additional 1 μL of different wash buffer candidates was added to a total of 11 μL. […] As an experimental control, a “No Additive” condition was tested, which was a 10 μL reaction with optimized reaction conditions and no inhibitors. To control for the effects of a 1 μL dilution on the reaction, a “Water” condition which was an 11 μL reaction with no inhibitors was also tested.

λ phage DNA = assay: Zymo Quick-Viral DNA/RNA kit extraction with additional TPW, qPCR with 2.2× diluted eluent
Procedure: qPCR reactions contained 1× Bio-Rad SsoFast Supermix (1725201, Bio-Rad), PCR primers (IDT) at […] each, and were supplemented with nuclease-free water up to 10 μL. Each 96-well plate (thin-wall clear well, HSP9641, Bio-Rad) was sealed (Microseal B, MSB1001, Bio-Rad) and briefly spun in a Mini Plate Spinner Centrifuge (14-100-141, Fisher Scientific). Heating and real-time imaging were performed on the Bio-Rad CFX-96 Touch Real-Time PCR Detection System by heating to 95° C. for 5 min, cycling 40 times between 95° C. for 15 s, 60° C. for 15 s, and 72° C. for 20 s, and taking a melt-curve analysis. For the E. coli DNA dilution experiment, qPCR was run for 60 cycles. Fluorescence readings were taken at the end of each extension step. Quantification cycle (Cq) was determined when the software's automated baseline corrected fluorescence reached 200 RFU.
Three different silica-column kits were tested, including: Zymo ZR Viral DNA/RNA Kit (outdated protocol, D7021), Zymo Quick-DNA/RNA Kit (updated protocol, D7021), and the QIAquick PCR Purification Kit (28104, Qiagen). For all silica-column kits, fresh collection tubes were used after each spin and centrifugation speeds were set to 16,000×g. Centrifugation was performed on either an Eppendorf 5415D centrifuge (Eppendorf, Hauppauge, N.Y., USA) or a Thermo Fisher Scientific AccuSpin Micro 17R centrifuge (13-100-676). It was noted that the QIAquick protocol calls for 17,900×g, but instead was run at 16,000×g which was the max speed for the Eppendorf 5415D. For both Zymo kits, 750 μL lysed sample was prepared by mixing 125 μL sample with 125 μL Zymo 2×DNA/RNA Shield and 500 μL Viral DNA/RNA Buffer. For the Zymo ZR Viral DNA/RNA kit, 750 μL lysed sample was centrifuge for 1 min, 500 μL Zymo Viral Wash Buffer was centrifuged for 2 min, and 50 μL nuclease-free water was centrifuged for 30 s into a clean 1.5 mL tube. Optionally, either a dry spin or 300 μL TPW was centrifuged for 2 min in between the Viral Wash Buffer and elution steps. […] For the QIAquick PCR Purification Kit, 125 μL sample was mixed with 625 μL Buffer PB without indicator. 750 μL lysed sample was centrifuged for 30 s, followed by 750 μL Buffer PE for 30 s, a dry spin for 1 min, and 50 μL nuclease-free water for 1 min. Optionally, the dry spin was skipped or the dry spin was replaced with a 300 μL TPW and centrifuged for 1 min.
Of our TPW candidates, 1-undecanol was selected for further evaluation because (i) it was non-inhibitory for qPCR and LAMP reactions and (ii) as an alcohol, 1-undecanol may function similarly to ethanol- or isopropanol-based washes. In these experiments (testing criteria 1b and 2), a commercially purified λ phage DNA sample was first diluted to 2.5×10^6 copies and ran an NA extraction using the Zymo Quick-DNA/RNA Viral Kit. The experimental procedure either followed the manufacturer protocol or added an additional 300 μL 1-undecanol wash in between the Viral Wash Buffer and elution step. Using the manufacturer's protocol, the resulting eluent is approximately 49 μL, but with the added TPW the resulting eluent is approximately 48 μL aqueous phase and ˜1-2 μL 1-undecanol phase. To emphasize any potential inhibitory effects, a low dilution of eluent was used. For qPCR, a 2.2×dilution was achieved by adding 4.5 μL of eluent, 0.5 μL primers, and 5 μL qPCR reaction mix. For LAMP, a 2×dilution was achieved by adding 5 μL eluent, 0.5 μL primers, and 4.5 μL reaction mix. […] The ˜1-2 μL TPW separates from the aqueous phase and adheres to the walls of the tube, making it is easy to use a pipette to capture just the eluent.

[2] = system: LAMP spiked with 5×104 copies λ phage DNA; assay: LAMP reaction inhibition by dilutions of NA extraction kit buffers; conditions: for Avg TTP: 9 replicates, non-detects assigned 46.7 min
Procedure: as §1, §2
Confidence intervals were calculated assuming the populations to be normally distributed and using a t statistic. For buffer inhibition experiments, statistical analysis was performed by a 1-tailed unequal variance t-test (N=9) comparing the water condition (control) to each buffer concentration (H1: the mean is delayed). For the subsequent experiments, a 2-tailed unequal variance t-test (H1: the means are different) was used. […] Although this approach introduces some bias into the analysis, it is believed this is the best representation for handling non-detects (other alternatives include excluding the non-detects or assigning non-detect values to the average of those that amplified).
These two commercial kits in particular were chosen because they both utilize minimal protocols (lysis, wash, elute) with no added steps (e.g. bacterial pellet spins, proteinase K, lysozyme, DNase/RNase, filtration, etc.). Specifically, an experiment was conducted to identify the concentration at which each buffer inhibits qPCR and LAMP.

Structure (SMILES)	Avg TTP ([1]; N.D. = not detected within 40 min) [min]	ΔTTP ([1]; minus the No additive control) [min]	Cq (λ phage DNA; 2.2× eluent dilution, 3 columns, 9 samples) [cycles]	qPCR reactions amplified (λ phage DNA; 2.2× eluent dilution, amplified/total)	average Cq (λ phage DNA; 27 reactions (9 columns)) [cycles]	wells with Cq between 18-22 cycles (λ phage DNA; 27 reactions (9 columns))	wells with a delayed Cq (λ phage DNA; 27 reactions (9 columns))	Avg TTP ([2]; 0.03% buffer in LAMP) [min]	ΔTTP ([2]; 0.03% buffer vs water condition (0%)) [min]	Avg TTP ([2]; 0.1% buffer in LAMP) [min]	ΔTTP ([2]; 0.1% buffer vs water condition (0%)) [min]	Avg TTP ([2]; 0.32% buffer in LAMP) [min]	ΔTTP ([2]; 0.32% buffer vs water condition (0%)) [min]	Avg TTP ([2]; 1% buffer in LAMP) [min]	ΔTTP ([2]; 1% buffer vs water condition (0%)) [min]	Avg TTP ([2]; 3.2% buffer in LAMP) [min]	ΔTTP ([2]; 3.2% buffer vs water condition (0%)) [min]	Avg TTP ([2]; 10% buffer in LAMP) [min]	ΔTTP ([2]; 10% buffer vs water condition (0%)) [min]
CCCCCCCCCCCO [1-undecanol]	6.70	0.16	18.46±0.22	all reactions amplified	19.7±2.5	25/27	2/27												
CCO [Ethanol, ethanol]								6.4	0.1	6.5	0.1	6.6	0.2	6.9	0.5	9.7	3.3	46.7	40.3

— patent publication US11866695B2, “Methods and systems and related compositions for mixtures separation with a solid matrix” (CALIFORNIA INSTITUTE OF TECHNOLOGY, priority 2019, dated 2024)
